# Test results taken from publication PMC7310027, “PET imaging of soluble epoxide hydrolase in non-human primate brain with [^18F]FNDP” (EJNMMI Research, 2020).
# Like-named read-outs stand apart in the source and are kept apart here.
# Tests used:
# [1] = parameters: method as in PMID 27417650; details: baboon brain; cited from earlier work
# [2] = tested on: soluble epoxide hydrolase (sEH); assay: Baboon [^18F]FNDP dynamic PET, baseline scans with kinetic modelling (2TCM, 1TCM, Logan); type: in vivo, baboon (Papio anubis)
# Method: (§1) PET images were acquired using a CPS/CTI high-resolution research tomograph (HRRT), which has an axial resolution (FWHM) of 2.4 mm and in-plane resolution of 2.4–2.8 mm. […] These blocking studies were performed 27 to 43 days apart from each other to ensure full animal recovery. The animals had no food for 12 h prior to each PET study. Anesthesia was induced with intramuscular ketamine (7.5–10 mg/kg) and maintained with a continuous intravenous infusion of propofol at 0.3–0.4 mg/kg/min throughout the PET experiment. One venous catheter was inserted for the radioligand injection, and one arterial catheter was inserted to obtain arterial blood samples. Baboons were intubated to facilitate respiration, and circulatory volume was maintained by constant infusion of isotonic saline. Physiological vital signs including heart rate, blood pressure, electrocardiogram, and oxygen saturation were monitored continuously throughout the study.
# (§2) The animals were positioned in the PET scanner with the head immobilized using a thermoplastic mask. A 6-min transmission scan was acquired using a rotating ^137Cesium source for generating attenuation maps. The 90-min dynamic PET acquisition was then started in three-dimensional list mode simultaneously with an intravenous bolus injection of [^18F]FNDP. […]
# (§3) Measurement of the arterial plasma input function was conducted through collection of ~ 40 blood samples over the course of the 90-min dynamic PET study. […] Samples were then centrifuged at 1200 × g, and the plasma radioactivity was measured with a cross-calibrated PerkinElmer Wizard 2480 automatic gamma counter.
# (§4) The 90 min of PET data were binned into 30 frames: four 15-s, four 30-s, three 1-min, two 2-min, five 4 -min, and 12 5-min frames. Images were reconstructed using the 3D iterative ordered subset expectation maximization (OS-EM) algorithm (with six iterations and 16 subsets) with correction for radioactive decay, deadtime, attenuation, scatter, and randoms. The reconstructed image space consisted of cubic voxels, each 1.22 mm^3 in size, and spanning dimensions of 31 cm × 31 cm (transaxially) and 25 cm (axially).
# (§5) The software package PMOD (v3.7, PMOD Technologies Ltd, Zurich, Switzerland) was used for the image processing and subsequent kinetic analysis. The previously acquired T1-weighted brain MRI images for the baboon were co-registered to the reconstructed dynamic PET images acquired in this study. Through manually matching the co-registered MRI to the INIA19 Template and NeuroMaps Atlas for Primate Brain Image Parcellation and Spatial Normalization, 13 representative baboon brain volumes of interest (VOIs) were defined, […] Regional time activity curves (TACs) were then generated for both baseline and blocking PET scans using those VOIs.
# (§6) Next, kinetic modeling was performed based on the TACs and the metabolite-corrected arterial plasma input functions. For brain uptake, the primary outcome measure was the regional brain distribution volume (VT) of [^18F]FNDP, defined as concentration of the radiotracer in regional tissue relative to that in blood at equilibrium. We evaluated which compartmental models (e.g., two-tissue-three-compartment (2TCM) or one-tissue-two-compartment (1TCM)) best described the [^18F]FNDP PET data, using statistical model selection criteria, such as the Akaike information criterion. For comparison, the Logan graphical method (t* = 30 min) was also used to compute regional VT, as well as generating voxel-wise parametric images of VT [31].
# [3] = as above; type: in vivo, baboon (Papio anubis); details: male, baboon (Papio anubis), intravenous, baseline, mean ± SD of 3 baboons
# Method: as §1, §2, §3, §4, §5, §6
# [4] = Amygdala, baseline, mean ± SD of 3 baboons
# [5] = Caudate, baseline, mean ± SD of 3 baboons
# [6] = Cerebellum, baseline, mean ± SD of 3 baboons
# [7] = Corpus callosum, baseline, mean ± SD of 3 baboons
# [8] = Frontal gyrus, baseline, mean ± SD of 3 baboons
# [9] = Globus pallidus, baseline, mean ± SD of 3 baboons
# [10] = Hippocampus, baseline, mean ± SD of 3 baboons
# [11] = Hypothalamus, baseline, mean ± SD of 3 baboons
# [12] = Insula, baseline, mean ± SD of 3 baboons
# [13] = Occipital cortex, baseline, mean ± SD of 3 baboons
# [14] = Putamen, baseline, mean ± SD of 3 baboons
# [15] = Temporal gyrus, baseline, mean ± SD of 3 baboons
# [16] = Thalamus, baseline, mean ± SD of 3 baboons
# [17] = White matter, baseline, mean ± SD of 3 baboons
compound,measurement,setting,value
"O=C(NCCC(c1ccccc1)c1ccccc1)c1ccc([18F])nc1 [[^18F]FNDP, N-(3,3-diphenylpropyl)-6-^18F-fluoronicotinamide]","brain uptake, standardized uptake value (SUV)",[1],4
same,1TCM K1,[2]; [4],0.14 ± 0.03 mL/cm^3/min
same,2TCM K1,[2]; [4],0.14 ± 0.03 mL/cm^3/min
same,1TCM K1,[2]; [5],0.21 ± 0.05 mL/cm^3/min
same,2TCM K1,[2]; [5],0.21 ± 0.05 mL/cm^3/min
same,1TCM K1,[2]; [6],0.18 ± 0.03 mL/cm^3/min
same,2TCM K1,[2]; [6],0.19 ± 0.03 mL/cm^3/min
same,1TCM K1,[2]; [7],0.15 ± 0.03 mL/cm^3/min
same,2TCM K1,[2]; [7],0.17 ± 0.03 mL/cm^3/min
same,1TCM K1,[2]; [8],0.16 ± 0.04 mL/cm^3/min
same,2TCM K1,[2]; [8],0.18 ± 0.04 mL/cm^3/min
same,1TCM K1,[2]; [9],0.17 ± 0.03 mL/cm^3/min
same,2TCM K1,[2]; [9],0.19 ± 0.03 mL/cm^3/min
same,1TCM K1,[2]; [10],0.14 ± 0.03 mL/cm^3/min
same,2TCM K1,[2]; [10],0.15 ± 0.04 mL/cm^3/min
same,1TCM K1,[2]; [11],0.14 ± 0.03 mL/cm^3/min
same,2TCM K1,[2]; [11],0.15 ± 0.03 mL/cm^3/min
same,1TCM K1,[2]; [12],0.20 ± 0.05 mL/cm^3/min
same,2TCM K1,[2]; [12],0.22 ± 0.05 mL/cm^3/min
same,1TCM K1,[2]; [13],0.17 ± 0.06 mL/cm^3/min
same,2TCM K1,[2]; [13],0.18 ± 0.06 mL/cm^3/min
same,1TCM K1,[2]; [14],0.22 ± 0.05 mL/cm^3/min
same,2TCM K1,[2]; [14],0.23 ± 0.05 mL/cm^3/min
same,1TCM K1,[2]; [15],0.16 ± 0.03 mL/cm^3/min
same,2TCM K1,[2]; [15],0.17 ± 0.03 mL/cm^3/min
same,1TCM K1,[2]; [16],0.16 ± 0.03 mL/cm^3/min
same,2TCM K1,[2]; [16],0.17 ± 0.03 mL/cm^3/min
same,1TCM K1,[2]; [17],0.17 ± 0.04 mL/cm^3/min
same,2TCM K1,[2]; [17],0.18 ± 0.04 mL/cm^3/min
same,time of peak of regional brain TACs post-injection,[2]; all regions at baseline,< 15 min
same,K1 (2TCM),"[2]; baseline scan, Baboon3",0.151 ± 0.021 mL/cm^3/min
same,Kp,"[2]; male, baboon (Papio anubis), brain (cerebellum), intravenous, Cerebellum, baseline, mean ± SD of 3 baboons, read-out: 1TCM VT",7.33 ± 0.45
same,Kp,"[2]; male, baboon (Papio anubis), brain (cerebellum), intravenous, Cerebellum, baseline, mean ± SD of 3 baboons, read-out: 2TCM VT",7.66 ± 0.72
same,Kp,"[2]; male, baboon (Papio anubis), brain (globus pallidus), intravenous, Globus pallidus, baseline, mean ± SD of 3 baboons, read-out: 1TCM VT",9.07 ± 0.66
same,Kp,"[2]; male, baboon (Papio anubis), brain (globus pallidus), intravenous, Globus pallidus, baseline, mean ± SD of 3 baboons, read-out: 2TCM VT",9.74 ± 1.02
same,Kp,"[2]; male, baboon (Papio anubis), brain (globus pallidus), intravenous, Globus pallidus, baseline, mean ± SD of 3 baboons, read-out: Logan VT",9.44 ± 0.92
same,Kp,"[2]; male, baboon (Papio anubis), brain (occipital cortex), intravenous, Occipital cortex, baseline, mean ± SD of 3 baboons, read-out: 1TCM VT",7.39 ± 1.56
same,Kp,"[2]; male, baboon (Papio anubis), brain (occipital cortex), intravenous, Occipital cortex, baseline, mean ± SD of 3 baboons, read-out: 2TCM VT",7.82 ± 1.82
same,Kp,"[2]; male, baboon (Papio anubis), brain (occipital cortex), intravenous, Occipital cortex, baseline, mean ± SD of 3 baboons, read-out: Logan VT",7.67 ± 1.63
same,"total distribution volume (VT, Logan)","[2]; male, baboon (Papio anubis), brain (range over regions), intravenous, baseline, 3 baboons",7.63 to 13.3
same,Kp,"[2]; male, baboon (Papio anubis), brain (white matter), intravenous, White matter, baseline, mean ± SD of 3 baboons, read-out: 1TCM VT",8.43 ± 0.89
same,Kp,"[2]; male, baboon (Papio anubis), brain (white matter), intravenous, White matter, baseline, mean ± SD of 3 baboons, read-out: 2TCM VT",9.29 ± 1.08
same,Kp,"[2]; male, baboon (Papio anubis), brain (white matter), intravenous, White matter, baseline, mean ± SD of 3 baboons, read-out: Logan VT",9 ± 1.03
same,Kp,"[2]; male, baboon (Papio anubis), brain, corpus callosum, intravenous, Corpus callosum, baseline, mean ± SD of 3 baboons, read-out: 1TCM VT",8.32 ± 0.91
same,Kp,"[2]; male, baboon (Papio anubis), brain, corpus callosum, intravenous, Corpus callosum, baseline, mean ± SD of 3 baboons, read-out: 2TCM VT",9.28 ± 0.9
same,Kp,"[2]; male, baboon (Papio anubis), brain, corpus callosum, intravenous, Corpus callosum, baseline, mean ± SD of 3 baboons, read-out: Logan VT",9.06 ± 0.99
same,Kp,"[2]; male, baboon (Papio anubis), brain, frontal gyrus, intravenous, Frontal gyrus, baseline, mean ± SD of 3 baboons, read-out: 1TCM VT",9.58 ± 0.6
same,Kp,"[2]; male, baboon (Papio anubis), brain, frontal gyrus, intravenous, Frontal gyrus, baseline, mean ± SD of 3 baboons, read-out: 2TCM VT",10.5 ± 1.01
same,Kp,"[2]; male, baboon (Papio anubis), brain, frontal gyrus, intravenous, Frontal gyrus, baseline, mean ± SD of 3 baboons, read-out: Logan VT",10.3 ± 0.91
same,Kp,"[2]; male, baboon (Papio anubis), brain, intravenous, baboon brain, baseline, read-out: baseline VT",10.9 ± 2.4
same,Kp,"[2]; male, baboon (Papio anubis), brain, temporal gyrus, intravenous, Temporal gyrus, baseline, mean ± SD of 3 baboons, read-out: Logan VT",9.52 ± 0.57
same,Kp,"[3]; brain: amygdala, Amygdala, read-out: 1TCM VT",10.5 ± 0.81
same,Kp,"[3]; brain: amygdala, Amygdala, read-out: 2TCM VT",12.5 ± 2.47
same,Kp,"[3]; brain: amygdala, Amygdala, read-out: Logan VT",12 ± 1.63
same,Kp,"[3]; brain: caudate, Caudate, read-out: 1TCM VT",12.9 ± 1.44
same,Kp,"[3]; brain: caudate, Caudate, read-out: 2TCM VT",13.9 ± 2.28
same,Kp,"[3]; brain: caudate, Caudate, read-out: Logan VT",13.3 ± 1.94
same,Kp,"[3]; brain: cerebellum, Cerebellum, read-out: Logan VT",7.63 ± 0.58
same,Kp,"[3]; brain: hippocampus, Hippocampus, read-out: 1TCM VT",10.3 ± 1.55
same,Kp,"[3]; brain: hippocampus, Hippocampus, read-out: 2TCM VT",11.5 ± 2.61
same,Kp,"[3]; brain: hippocampus, Hippocampus, read-out: Logan VT",11 ± 1.96
same,Kp,"[3]; brain: hypothalamus, Hypothalamus, read-out: 1TCM VT",7.77 ± 0.35
same,Kp,"[3]; brain: hypothalamus, Hypothalamus, read-out: 2TCM VT",8.32 ± 0.57
same,Kp,"[3]; brain: hypothalamus, Hypothalamus, read-out: Logan VT",8.08 ± 0.44
same,Kp,"[3]; brain: insula, Insula, read-out: 1TCM VT",12.1 ± 1.08
same,Kp,"[3]; brain: insula, Insula, read-out: 2TCM VT",13.8 ± 1.42
same,Kp,"[3]; brain: insula, Insula, read-out: Logan VT",12.8 ± 1.32
same,Kp,"[3]; brain: putamen, Putamen, read-out: 1TCM VT",12.9 ± 1.54
same,Kp,"[3]; brain: putamen, Putamen, read-out: 2TCM VT",13.8 ± 2.27
same,Kp,"[3]; brain: putamen, Putamen, read-out: Logan VT",13.3 ± 1.81
same,Kp,"[3]; brain: temporal gyrus, Temporal gyrus, read-out: 1TCM VT",9.05 ± 0.41
same,Kp,"[3]; brain: temporal gyrus, Temporal gyrus, read-out: 2TCM VT",9.77 ± 1.02
same,Kp,"[3]; brain: thalamus, Thalamus, read-out: 1TCM VT",7.42 ± 0.36
same,Kp,"[3]; brain: thalamus, Thalamus, read-out: 2TCM VT",7.9 ± 0.74
same,Kp,"[3]; brain: thalamus, Thalamus, read-out: Logan VT",7.87 ± 0.55
